Literature values, collected in US20040142045A1, “THERAPEUTIC TREATMENT FOR BLOOD SUGAR REGULATION” (priority 2003, published 2004).
Read-outs that look alike come from different tables or passages of the source.

Assays:
[1] = animal models of insulin resistance and Type 2 diabetic patients
[2] = diabetic animals
[3] = insulin dependent diabetes mellitus
glucokinase = settings: supplementation
[4] = experimental animals
[5] = Type 1 and Type 2 diabetics, supplementation
[6] = diabetics, dietary supplementation
[7] = another study, supplementation
[8] = mice with abnormally high glucose concentrations

O=C(O)CCCCC1CCSS1 (stereo not drawn) [Alpha lipoic acid]
insulin regulated glucose disposal [1]: improve | blood glucose levels [2]: lower | glucose uptake into the peripheral tissues [2]: enhanced

O=C(O)CCCC[C@@H]1SC[C@@H]2NC(=O)N[C@@H]21 [Biotin]
fasting blood glucose levels [3]: significant reduction | activity of glucokinase (glucokinase): increase

NC(=O)c1cccnc1 [Nicotinamide]
development of diabetes [4]: prevent

[Zn] [Zinc]
insulin levels [5]: improve

[Cr] [chromium]
fasting blood glucose levels [6]: decrease

O=S(=O)([O-])[O-].[O]=[V+2] [vanadyl sulfate]
fasting blood glucose and hepatic insulin resistance [7]: modest reductions

methylhydroxy chalcone polymer
glucose concentrations [8]: fell dramatically
